Source: ChEMBL document CHEMBL1136143, “Synthesis and activity of novel benzoxazole derivatives of mannopeptimycin glycopeptide antibiotics” (2003)

Experiments:
[1] = test system: Enterococcus faecium; assay: In vitro minimum inhibitory concentration against vancomycin-resistant Enterococcus faecium (GC 4558); assay type: functional
[2] = test system: Staphylococcus haemolyticus; assay: In vitro minimum inhibitory concentration against methicillin-susceptible Coagulase-negative Staphylococci (MSCNS) (GC 4551); assay type: functional
[3] = test system: Micrococcus luteus; assay: In vitro minimum inhibitory concentration against Micrococcus lutea (GC 4562); assay type: functional
[4] = test system: Enterococcus faecalis; assay: In vitro minimum inhibitory concentration against vancomycin-susceptible Enterococcus faecalis (GC 4552); assay type: functional
[5] = test system: Enterococcus faecalis; assay: In vitro minimum inhibitory concentration against vancomycin-resistant Enterococcus faecalis (GC 3059); assay type: functional
[6] = test system: Enterococcus faecalis; assay: In vitro minimum inhibitory concentration against vancomycin-susceptible Enterococcus faecalis (GC 4553); assay type: functional
[7] = test system: Streptococcus pneumoniae; assay: In vitro minimum inhibitory concentration against Penicillin resistant Streptococcus pneumoniae (GC 1894); assay type: functional
[8] = test system: Staphylococcus haemolyticus; assay: In vitro minimum inhibitory concentration against methicillin-resistant Coagulase-negative Staphylococci (MRCNS) (GC 4548)); assay type: functional
[9] = test system: Staphylococcus haemolyticus; assay: In vitro minimum inhibitory concentration against methicillin-susceptible Coagulase-negative Staphylococci (MSCNS) (GC 4549)); assay type: functional
[10] = test system: Staphylococcus aureus; assay: In vitro minimum inhibitory concentration against glycopeptide tntermediate Staphylococcus aureus (GC 3051); assay type: functional
[11] = test system: Staphylococcus aureus; assay: In vitro minimum inhibitory concentration against Methicillin-resistant Staphylococcus aureus(GC 4545); assay type: functional
[12] = test system: Enterococcus faecium; assay: In vitro minimum inhibitory concentration against vancomycin-susceptible Enterococcus faecium (GC 4557); assay type: functional
[13] = test system: Streptococcus pneumoniae; assay: In vitro minimum inhibitory concentration against Penicillin susceptible Streptococcus pneumoniae (GC 4565)
[14] = test system: Enterococcus faecalis; assay: In vitro minimum inhibitory concentration against vancomycin-susceptible Enterococcus faecalis (GC 4554); assay type: functional
[15] = test system: Enterococcus sp.; assay: In vitro minimum inhibitory concentration against Enterococcus species (11 strains, including VRE); assay type: functional
[16] = test system: Enterococcus faecium; assay: In vitro minimum inhibitory concentration against vancomycin-resistant Enterococcus faecium (GC 2243); assay type: functional
[17] = test system: Enterococcus faecalis; assay: In vitro minimum inhibitory concentration against vancomycin-susceptible Enterococcus faecalis (GC 2691); assay type: functional
[18] = test system: Streptococcus pyogenes; assay: In vitro minimum inhibitory concentration against Streptococcus pyogenes (GC 4563)
[19] = test system: Staphylococcus aureus; assay: In vitro minimum inhibitory concentration against Staphylococcus aureus (10strains, including MRSA); assay type: functional
[20] = test system: Staphylococcus aureus; assay: In vitro minimum inhibitory concentration against Methicillin-resistant Staphylococcus aureus(GC 4541); assay type: functional
[21] = test system: Streptococcus pneumoniae; assay: In vitro minimum inhibitory concentration against Penicillin susceptible Streptococcus pneumoniae (GC 6242); assay type: functional
[22] = test system: Staphylococcus haemolyticus; assay: In vitro minimum inhibitory concentration against methicillin-resistant Coagulase-negative Staphylococci (MRCNS) (GC 4546)); assay type: functional
[23] = test system: Enterococcus faecalis; assay: In vitro minimum inhibitory concentration against vancomycin-resistant Enterococcus faecalis (GC 6189); assay type: functional
[24] = test system: Bacillus cereus; assay: In vitro minimum inhibitory concentration against Bacillus cereus (GC 4561) assay organism; assay type: functional
[25] = test system: Staphylococcus aureus; assay: In vitro minimum inhibitory concentration against Methicillin-resistant Staphylococcus aureus (GC 1131); assay type: functional
[26] = test system: Enterococcus faecalis; assay: In vitro minimum inhibitory concentration against vancomycin-susceptible Enterococcus faecalis (GC 4555); assay type: functional
[27] = test system: Staphylococcus haemolyticus; assay: In vitro minimum inhibitory concentration against methicillin-resistant Coagulase-negative Staphylococci (MRCNS) (GC 4547)); assay type: functional
[28] = test system: Enterococcus faecium; assay: In vitro minimum inhibitory concentration against vancomycin-susceptible Enterococcus faecium (GC 4556); assay type: functional
[29] = test system: Staphylococcus aureus; assay: In vitro minimum inhibitory concentration against Methicillin-resistant Staphylococcus aureus (GC 2216); assay type: functional
[30] = test system: Streptococcus agalactiae; assay: In vitro minimum inhibitory concentration against Streptococcus agalactiae (GC4564)
[31] = test system: Staphylococcus aureus; assay: In vitro minimum inhibitory concentration against Methicillin-resistant Staphylococcus aureus (GC 4543); assay type: functional
[32] = test system: Streptococcus; assay: In vitro minimum inhibitory concentration against Streptococcus Species (5 strains, including PRSP); assay type: functional
[33] = test system: Enterococcus faecalis; assay: In vitro minimum inhibitory concentration against vancomycin-resistant Enterococcus faecalis (GC 2242); assay type: functional
[34] = test system: Staphylococcus aureus; assay: In vitro minimum inhibitory concentration against glycopeptide tntermediate Staphylococcus aureus (GC 3066); assay type: functional
[35] = test system: Staphylococcus haemolyticus; assay: In vitro minimum inhibitory concentration against methicillin-susceptible Coagulase-negative Staphylococci (MSCNS) (GC 6257); assay type: functional
[36] = test system: Staphylococcus aureus; assay: In vitro minimum inhibitory concentration against Methicillin-resistant Staphylococcus aureus(GC 4544); assay type: functional
[37] = test system: Staphylococcus aureus; assay: In vitro minimum inhibitory concentration against Methicillin-resistant Staphylococcus aureus (GC 4542); assay type: functional
[38] = test system: Staphylococcus aureus; assay: In vitro minimum inhibitory concentration against Staphylococcus aureus; assay type: functional
[39] = test system: Staphylococcus haemolyticus; assay: In vitro minimum inhibitory concentration against methicillin-resistant Coagulase-negative Staphylococci (MRCNS) hemolyticu (GC 4546)); assay type: functional
[40] = test system: Enterococcus faecium; assay: In vitro minimum inhibitory concentration against vancomycin-resistant Enterococcus faecium (GC 2243)
[41] = test system: Enterococcus faecium; assay: In vitro minimum inhibitory concentration against vancomycin-resistant Enterococcus faecium (GC 4558)
[42] = test system: Staphylococcus aureus; assay: In vitro minimum inhibitory concentration against Methicillin-susceptible Staphylococcus aureus (GC 2216); assay type: functional
[43] = test system: Staphylococcus aureus; assay: In vitro minimum inhibitory concentration against Methicillin-susceptible Staphylococcus aureus(GC 4544); assay type: functional
[44] = test system: Streptococcus pneumoniae; assay: In vitro minimum inhibitory concentration against Penicillin susceptible Streptococcus pneumoniae (GC 4565); remark: listed apart in the source
[45] = test system: Staphylococcus aureus; assay: In vitro minimum inhibitory concentration against Methicillin-susceptible Staphylococcus aureus(GC 4545); assay type: functional
[46] = test system: Enterococcus faecium; assay: In vitro minimum inhibitory concentration against vancomycin-susceptible Enterococcus faecium (GC 4556)
[47] = test system: Staphylococcus aureus; assay: In vitro minimum inhibitory concentration against Methicillin-susceptible Staphylococcus aureus (GC 4543); assay type: functional
[48] = test system: Streptococcus pyogenes; assay: In vitro minimum inhibitory concentration against Streptococcus pyogenes (GC 4563); assay type: functional
[49] = test system: Enterococcus faecium; assay: In vitro minimum inhibitory concentration against vancomycin-susceptible Enterococcus faecium (GC 4557)
[50] = test system: Streptococcus agalactiae; assay: In vitro minimum inhibitory concentration against Streptococcus agalactiae (GC4564); remark: listed apart in the source
[51] = test system: Staphylococcus haemolyticus; assay: In vitro minimum inhibitory concentration against methicillin-resistant Coagulase-negative Staphylococci (MRCNS) (GC 4546); assay type: functional
[52] = test system: Streptococcus agalactiae; assay: In vitro minimum inhibitory concentration against Streptococcus agalactiae (GC4564); assay type: functional
[53] = test system: Staphylococcus haemolyticus; assay: In vitro minimum inhibitory concentration against methicillin-resistant Coagulase-negative Staphylococci (MRCNS) (GC 4547); assay type: functional
[54] = test system: Staphylococcus haemolyticus; assay: In vitro minimum inhibitory concentration against methicillin-resistant Coagulase-negative Staphylococci (MRCNS) (GC 4548); assay type: functional
[55] = test system: Staphylococcus haemolyticus; assay: In vitro minimum inhibitory concentration against methicillin-susceptible Coagulase-negative Staphylococci (MSCNS) (GC 4549); assay type: functional
[56] = test system: Streptococcus pneumoniae; assay: In vitro minimum inhibitory concentration against Penicillin susceptible Streptococcus pneumoniae (GC 4565); assay type: functional

Measured: MIC

C[C@@H](c1ccccc1)[C@@H]1NC(=O)CNC(=O)[C@H](CO)NC(=O)[C@@H]([C@@H](O)[C@@H]2CN=C(N)N2[C@H]2O[C@H](CO)[C@@H](O)[C@H](O)[C@@H]2O)NC(=O)[C@H]([C@H](O)[C@@H]2CN=C(N)N2)NC(=O)[C@@H](Cc2ccc3nc(-c4cccc(F)c4)oc3c2)NC1=O
4 µg/mL: [8] | [18] | [22] | [32] | [35]
8 µg/mL: [2] | [11] | [12] | [19] | [21] | [25] | [27] | [29] | [30] | [31] | [36] | [37]
32 µg/mL: [16] | [17] | [23] | [33]
64 µg/mL: [4] | [5] | [14] | [24] | [26] | [28]
2 µg/mL: [3]
16 µg/mL: [1] | [6] | [7] | [9] | [10] | [13] | [15] | [20] | [34]

C[C@@H](c1ccccc1)[C@@H]1NC(=O)CNC(=O)[C@H](CO)NC(=O)[C@@H]([C@@H](O)[C@@H]2CN=C(N)N2[C@H]2O[C@H](CO)[C@@H](O)[C@H](O)[C@@H]2O)NC(=O)[C@H]([C@H](O)[C@@H]2CN=C(N)N2)NC(=O)[C@@H](Cc2ccc(O)cc2)NC1=O
64 µg/mL: [38]
32 µg/mL: [15]

C[C@@H](c1ccccc1)[C@@H]1NC(=O)CNC(=O)[C@H](CO)NC(=O)[C@@H]([C@@H](O)[C@@H]2CN=C(N)N2[C@H]2O[C@H](CO)[C@@H](O)[C@H](O)[C@@H]2O)NC(=O)[C@H]([C@H](O)[C@@H]2CN=C(N)N2)NC(=O)[C@@H](Cc2ccc3nc(-c4ccc(N(C)C)cc4)oc3c2)NC1=O
32 µg/mL: [7] | [14] | [17] | [21] | [23] | [44] | [24] | [26] | [33] | [50]
16 µg/mL: [40] | [6] | [41] | [48] | [32]
8 µg/mL: [2] | [10] | [15] | [42] | [19] | [43] | [20] | [45] | [25] | [47] | [49] | [34] | [37]
64 µg/mL: [4] | [5] | [46]
2 µg/mL: [3] | [9]
4 µg/mL: [39] | [8] | [27] | [35]

CCN1CCN(C(=O)N[C@@H](C(=O)N[C@@H]2C(=O)N3[C@@H]2SC(C)(C)[C@@H]3C(=O)O)c2ccccc2)C(=O)C1=O [PIPERACILLIN]
1 µg/mL: [14] | [24] | [26] | [28] | [47]
< 0.06 µg/mL: [3] | [21]
2 µg/mL: [4] | [5] | [7] | [17] | [23] | [33]
> 64 µg/mL: [1] | [51] | [6] | [20] | [53] | [25]
64 µg/mL: [10] | [16] | [37]
< 0.006 µg/mL: [56] | [48]
4 µg/mL: [2] | [42] | [43] | [35]
8 µg/mL: [45]
0.12 µg/mL: [12] | [52]
< 0.12 µg/mL: [32]
0.25 µg/mL: [15]
32 µg/mL: [55]
16 µg/mL: [54]
0.5 µg/mL: [19] | [34]

Cc1ccc(Oc2ccc(-c3nc4ccc(C[C@H]5NC(=O)[C@H]([C@@H](C)c6ccccc6)NC(=O)CNC(=O)[C@H](CO)NC(=O)[C@@H]([C@@H](O)[C@@H]6CN=C(N)N6[C@H]6O[C@H](CO)[C@@H](O)[C@H](O)[C@@H]6O)NC(=O)[C@H]([C@H](O)[C@@H]6CN=C(N)N6)NC5=O)cc4o3)cc2)cc1
1 µg/mL: [3] | [48] | [32]
4 µg/mL: [1] | [2] | [6] | [7] | [8] | [9] | [10] | [11] | [12] | [15] | [19] | [21] | [22] | [52] | [56] | [31] | [33] | [34]
8 µg/mL: [4] | [5] | [14] | [16] | [17] | [20] | [23] | [24] | [25] | [26] | [27] | [28] | [29] | [36] | [37]
2 µg/mL: [35]

C[C@@H](c1ccccc1)[C@@H]1NC(=O)CNC(=O)[C@H](CO)NC(=O)[C@@H]([C@@H](O)[C@@H]2CN=C(N)N2[C@H]2O[C@H](CO)[C@@H](O)[C@H](O)[C@@H]2O)NC(=O)[C@H]([C@H](O)[C@@H]2CN=C(N)N2)NC(=O)[C@@H](Cc2ccc3nc(SCC(=O)c4ccc(Cl)cc4)oc3c2)NC1=O
32 µg/mL: [5]
1 µg/mL: [9] | [22] | [24] | [35]
8 µg/mL: [7] | [16] | [21] | [56] | [28] | [29]
16 µg/mL: [3] | [14] | [17] | [23] | [26] | [33]
4 µg/mL: [1] | [2] | [6] | [10] | [20] | [52] | [25] | [27] | [34] | [36] | [37]
2 µg/mL: [4] | [8] | [11] | [12] | [15] | [19] | [31] | [48] | [32]
